# Data published in paper PMC4015918, “Conjugation to a SMAC mimetic potentiates sigma-2 ligand induced tumor cell death in ovarian cancer” (Molecular Cancer, 2014).
# Columns and labels:
# Type in all cases: cell-based
# [1] = system: caspase 3, caspase 8, and caspase 9; assay: Western blot for precursors and activated forms of caspases 8, 9 and 3; details: 10 μM, 24 hours, different ovarian cancer cell lines
# Protocol: Figure 3 Treatment with SW IV-134 results in caspase-mediated cell death. (A) Cells were treated with vehicle only (Ctrl.), SW43 (10 μM), and SW IV-134 (10 μM) for 24 hours. Cell lysates were subjected to Western blot analysis, and probed with antibodies specific for the precursors and activated forms of caspases 8, 9, and 3. (B) SKOV3 cells were treated with SW IV-134 at indicated doses either alone or in the presence of the pan-caspase inhibitor Z-VAD-FMK (20 μM) for 18 hours. Cell viability was determined by CellTiter-Glo assays (p < 0.018, Student’s t-test).
# (§1) Cells were lysed in radioimmunoprecipitation assay buffer [50 mM Tris, 150 mM sodium chloride, 1.0 mM EDTA, 1% Nonidet P40, and 0.25% SDS (pH 7.0)], supplemented with complete protease inhibitor cocktail (Roche, Mannheim) and phosphatase inhibitor cocktail 1 (Sigma Chemical Co., St. Louis, MO). The protein concentration was determined using a BioRad Dc protein assay kit (Bio-Rad Laboratories, Hercules, CA). Lysates containing 30 μg of protein were run on a 12% polyacrylamide gel and transferred to a PVDF membrane (Bio-Rad Laboratories, Hercules, CA). […]
# cIAP-1 and cIAP-2 = assay: Western blot for cIAP-1 and cIAP-2 levels; details: 10 μM
# Protocol: (§2) Figure 4 SW IV-134 engages in SMAC-dependent pathway activation. (A) SKOV3 cells were treated with vehicle only (Ctrl.), SW43 (10 μM), and SW IV-134 (10 μM) for 4 hours and cell lysates were subjected to Western blot analysis using antibodies against XIAP, cIAP-1, cIAP-2, NF-қB and NIK. While XIAP seems unaffected under the conditions used, cIAP-1 and cIAP-2 proteins are readily undetectable shortly post treatment. SW IV-134 treatment also leads to accumulation of NF-қB inducing kinase (NIK) and activation of NF-қB pathway. (B) SKOV3 cells were treated with SW IV-134 at the indicated doses either alone or in the presence of proteasome inhibitor MG132 (20 μM) for 18 hours. […] Cell viability was determined as described in the experimental methods (p < 0.011, Student’s t-test).
# as §1
# XIAP = molecular target: T1, XIAP (Homo sapiens, UniProt P98170); assay: Western blot for XIAP levels; details: SKOV3 cells, 10 μM, 4 hours
# T1 construct: endogenous in cells; host or cells: SKOV3
# T1 sequence (P98170 whole entry): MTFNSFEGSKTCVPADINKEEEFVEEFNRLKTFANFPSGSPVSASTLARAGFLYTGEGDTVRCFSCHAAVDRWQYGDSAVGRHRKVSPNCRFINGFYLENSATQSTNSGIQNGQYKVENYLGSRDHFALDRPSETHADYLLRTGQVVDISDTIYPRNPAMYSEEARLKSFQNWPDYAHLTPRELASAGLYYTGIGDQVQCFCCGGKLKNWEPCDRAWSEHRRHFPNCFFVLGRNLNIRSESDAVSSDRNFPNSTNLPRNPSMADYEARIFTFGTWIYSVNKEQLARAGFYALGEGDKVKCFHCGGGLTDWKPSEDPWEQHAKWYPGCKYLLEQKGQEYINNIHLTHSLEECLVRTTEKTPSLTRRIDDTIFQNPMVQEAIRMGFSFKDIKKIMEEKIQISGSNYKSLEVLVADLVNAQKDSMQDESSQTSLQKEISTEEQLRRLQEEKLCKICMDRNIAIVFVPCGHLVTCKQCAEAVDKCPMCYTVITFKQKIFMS
# Protocol: as §2, §1
# NF-қB (p65) = assay: Western blot for phosphorylation of NF-қB (p65); details: SKOV3 cells, 10 μM, 4 hours
# Protocol: as §2, §1
structure (smiles),measurement,setting,value
COc1ccc(C)cc1NC(=O)OC1CC2CCCC(C1)N2CCCCCCCCCCN[C@@H](C)C(=O)N[C@H](C(=O)N1CCC[C@H]1C(=O)N[C@@H]1CCCc2ccccc21)C(C)(C)C (some centres unmarked) [SW IV-134],"Activation of caspase 3, caspase 8, and caspase 9",[1],induced
same,cIAP-1 protein level,"cIAP-1 and cIAP-2; SKOV3, Hey A8 and Hey A8 MDR cells, 2 hours",readily undetectable shortly after treatment
same,cIAP-1 and cIAP-2 protein levels,"cIAP-1 and cIAP-2; SKOV3 cells, 4 hours",rapid loss of both cIAP-1 and cIAP-2
same,XIAP levels,XIAP,without affecting the XIAP levels
same,Activation (phosphorylation) of NF-қB (p65),NF-қB (p65),activation (phosphorylation) of NF-қB (p65)
